Data as given in patent publication US20240368135A1 (VERTEX PHARMACEUTICALS INCORPORATED, priority 2021, published 2024).

The molecules below were run against human NaV 1.8 (Homo sapiens, UniProt Q9Y5Y9) (assay: E-VIPR assay detecting and measuring NaV inhibition properties). Settings: HEK cells expressing truncated human NaV 1.8; in the presence of human serum (compound numbers followed by *); read-out: IC50 in the E-VIPR Assay, performed in the presence of human serum.
Assay type: cell-based
In short: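 HEK cells expressing truncated, fully active human NaV1.8, with KIR2.1 BacMam co-transduction, were loaded with CC2-DMPE/DiSBAC6(3) voltage-sensing dyes for 20 min at room temperature. Compounds were tested in 11-point 3-fold dilutions (300 nM top final), optionally with 25% human serum, under electrical stimulation with FRET read-out.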

Sequence of human NaV 1.8 (Q9Y5Y9 126-399 limits assumed): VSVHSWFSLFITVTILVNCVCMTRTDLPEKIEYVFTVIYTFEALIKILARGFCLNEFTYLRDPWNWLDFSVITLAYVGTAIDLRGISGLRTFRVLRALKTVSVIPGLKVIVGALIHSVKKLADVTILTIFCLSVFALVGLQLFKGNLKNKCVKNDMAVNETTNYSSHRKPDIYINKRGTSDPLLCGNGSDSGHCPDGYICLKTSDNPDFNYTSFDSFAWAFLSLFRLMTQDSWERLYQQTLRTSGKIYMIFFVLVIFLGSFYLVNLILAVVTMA
Sequence of human NaV 1.8 (Q9Y5Y9 660-890 limits assumed): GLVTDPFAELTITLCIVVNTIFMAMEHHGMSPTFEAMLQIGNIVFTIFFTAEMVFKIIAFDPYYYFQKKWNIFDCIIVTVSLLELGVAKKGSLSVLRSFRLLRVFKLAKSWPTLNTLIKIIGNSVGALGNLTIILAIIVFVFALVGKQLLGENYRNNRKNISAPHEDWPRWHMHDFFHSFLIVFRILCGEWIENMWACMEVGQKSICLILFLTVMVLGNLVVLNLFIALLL
Sequence of human NaV 1.8 (Q9Y5Y9 1148-1722 limits assumed): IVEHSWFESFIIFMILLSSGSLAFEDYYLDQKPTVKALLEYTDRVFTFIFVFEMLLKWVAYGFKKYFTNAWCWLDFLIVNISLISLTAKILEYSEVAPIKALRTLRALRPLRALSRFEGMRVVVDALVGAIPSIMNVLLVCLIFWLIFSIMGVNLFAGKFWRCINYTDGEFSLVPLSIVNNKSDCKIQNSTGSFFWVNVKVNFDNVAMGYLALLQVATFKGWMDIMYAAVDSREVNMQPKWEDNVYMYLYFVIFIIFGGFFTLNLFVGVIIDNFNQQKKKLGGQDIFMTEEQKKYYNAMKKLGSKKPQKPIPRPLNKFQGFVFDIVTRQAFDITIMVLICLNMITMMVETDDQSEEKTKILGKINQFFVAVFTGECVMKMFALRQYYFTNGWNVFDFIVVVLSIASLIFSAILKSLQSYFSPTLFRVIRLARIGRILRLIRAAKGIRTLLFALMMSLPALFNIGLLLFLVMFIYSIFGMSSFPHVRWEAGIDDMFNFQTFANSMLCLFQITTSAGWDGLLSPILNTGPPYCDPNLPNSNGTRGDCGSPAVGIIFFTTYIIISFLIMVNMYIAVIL

Compound	IC50 [nM]
COc1c([C@H]2[C@H](C(=O)Nc3ccc4ncn(C)c4c3)O[C@@](C)(C(F)(F)F)[C@H]2C)ccc(F)c1F [Compound 185, (2R,3S,4S,5R)-3-(3,4-difluoro-2-methoxyphenyl)-4,5-dimethyl-N-(1-methyl-1H-benzo[d]imidazol-6-yl)-5-(trifluoromethyl)tetrahydrofuran-2-carboxamide]	≥ 1000
COc1c([C@H]2[C@H](C(=O)Nc3ccc4nc[nH]c4c3)O[C@@](C)(C(F)(F)F)[C@H]2C)ccc(F)c1F [Compound 212, (2R,3S,4S,5R)-N-(1H-benzo[d]imidazol-6-yl)-3-(3,4-difluoro-2-methoxyphenyl)-4,5-dimethyl-5-(trifluoromethyl)tetrahydrofuran-2-carboxamide]	100 to 1000

Same assay, conditions: HEK cells expressing truncated human NaV 1.8; no human serum; read-out: IC50 in the E-VIPR Assay

Compound	IC50 [nM]
COc1c(C2C(C(=O)Nc3ccc(C(N)=O)nc3)OC(C)(C(F)(F)F)C2C)ccc(C(F)F)c1F (stereo not shown) [Compound 159, 5-[[3-[4-(difluoromethyl)-3-fluoro-2-methoxy-phenyl]-4,5-dimethyl-5-(trifluoromethyl)tetrahydrofuran-2-carbonyl]amino]pyridine-2-carboxamide]	≥ 1000
COc1c([C@H]2[C@H](C(=O)Nc3ccnc(CN4CCC(F)(F)C4)c3)O[C@@](C)(C(F)(F)F)[C@H]2C)ccc(F)c1F [Compound 182, (2R,3S,4S,5R)-3-(3,4-difluoro-2-methoxyphenyl)-N-(2-((3,3-difluoropyrrolidin-1-yl)methyl)pyridin-4-yl)-4,5-dimethyl-5-(trifluoromethyl)tetrahydrofuran-2-carboxamide]	10 to 100
COc1c([C@H]2[C@H](C(=O)Nc3ccc(C#N)cn3)O[C@@](C)(C(F)(F)F)[C@H]2C)ccc(F)c1F [Compound 187, (2R,2S,4S,5R)-N-(5-cyanopyridin-2-yl)-3-(3,4-difluoro-2-methoxyphenyl)-4,5-dimethyl-5-(trifluoromethyl)tetrahydrofuran-2-carboxamide]	10 to 100
COc1c([C@H]2[C@H](C(=O)Nc3ccnc(OC(F)F)c3)O[C@@](C)(C(F)(F)F)[C@H]2C)ccc(F)c1F [Compound 189, (2R,3S,4S,5R)-3-(3,4-difluoro-2-methoxyphenyl)-N-(2-(difluoromethoxy)pyridin-4-yl)-4,5-dimethyl-5-(trifluoromethyl)tetrahydrofuran-2-carboxamide]	10 to 100
COc1c([C@H]2[C@H](C(=O)Nc3ccc(C#N)nc3)O[C@@](C)(C(F)(F)F)[C@H]2C)ccc(F)c1F [Compound 192, (2R,3S,4S,5R)-N-(6-cyanopyridin-3-yl)-3-(3,4-difluoro-2-methoxyphenyl)-4,5-dimethyl-5-(trifluoromethyl)tetrahydrofuran-2-carboxamide]	10 to 100
COc1c([C@H]2[C@H](C(=O)Nc3ccc(-c4ncc[nH]4)nc3)O[C@@](C)(C(F)(F)F)[C@H]2C)ccc(F)c1F [Compound 193, (2R,3S,4S,5R)-N-(6-(1H-imidazol-2-yl)pyridin-3-yl)-3-(3,4-difluoro-2-methoxyphenyl)-4,5-dimethyl-5-(trifluoromethyl)tetrahydrofuran-2-carboxamide]	10 to 100
COc1c([C@H]2[C@H](C(=O)Nc3ccc(CCS(C)(=O)=O)nc3)O[C@@](C)(C(F)(F)F)[C@H]2C)ccc(F)c1F [Compound 194, (2R,3S,4S,5R)-3-(3,4-difluoro-2-methoxyphenyl)-4,5-dimethyl-N-(6-(2-(methylsuflonyl)ethyl)pyridin-3-yl)-5-(trifluoromethyl)tetrahydrofuran-2-carboxamide]	10 to 100
COc1c([C@H]2[C@H](C(=O)Nc3ccnc(OC4CCOCC4)c3)O[C@@](C)(C(F)(F)F)[C@H]2C)ccc(F)c1F [Compound 195, (2R,3S,4S,5R)-3-(3,4-difluoro-2-methoxyphenyl)-4,5-dimethyl-N-(2-((tetrahydro-2H-pyran-4-yl)oxy)pyridin-4-yl)-5-(trifluoromethyl)tetrahydrofuran-2-carboxamide]	10 to 100
COc1c(C2C(C(=O)Nc3cc[n+]([O-])c(C(O)CO)c3)OC(C)(C(F)(F)F)C2C)ccc(F)c1F (stereo not shown) [Compound 210, 3-(3,4-difluoro-2-methoxy-phenyl)-N-[2-(1,2-dihydroxyethyl)-1-oxido-pyridin-1-ium-4-yl]-4,5-dimethyl-5-(trifluoromethyl)tetrahydrofuran-2-carboxamide]	10 to 100
COc1c([C@H]2[C@H](C(=O)Nc3ccc(C4(N)COC4)nc3)O[C@@](C)(C(F)(F)F)[C@H]2C)ccc(F)c1F [Compound 213, (2R,3S,4S,5R)-N-(6-(3-aminooxetan-3-yl)pyridin-3-y1)-3-(3,4-difluoro-2-methoxyphenyl)-4,5-dimethyl-5-(trifluoromethyl)tetrahydrofuran-2-carboxamide]	10 to 100
COc1c([C@H]2[C@H](C(=O)Nc3ccnc(C[C@H]4COCCN4)c3)O[C@@](C)(C(F)(F)F)[C@H]2C)ccc(F)c1F [Compound 214, (2R,3S,4S,5R)-3-(3,4-difluoro-2-methoxyphenyl)-4,5-dimethyl-N-(2-(((S)-morpholin-3-yl)methyl)pyridin-4-yl)-5-(trifluoromethyl)tetrahydrofuran-2-carboxamide]	10 to 100
COc1c([C@H]2[C@H](C(=O)Nc3ccc(CC4CCNCC4)nc3)O[C@@](C)(C(F)(F)F)[C@H]2C)ccc(F)c1F [Compound 215, (2R,3S,4S,5R)-3-(3,4-difluoro-2-methoxyphenyl)-4,5-dimethyl-N-(6-(piperidin-4-ylmethyl)pyridin-3-yl)-5-(trifluoromethyl)tetrahydrofuran-2-carboxamide]	10 to 100
COc1c([C@H]2[C@H](C(=O)Nc3ccc(S(N)(=O)=O)nc3)O[C@@](C)(C(F)(F)F)[C@H]2C)ccc(F)c1F [Compound 235, (2R,3S,4S,5R)-3-(3,4-difluoro-2-methoxy-phenyl)-4,5-dimethyl-N-(6-sulfamoyl-3-pyridyl)-5-(trifluoromethyl)tetrahydrofuran-2-carboxamide]	10 to 100

Results, then the molecule that gave them:

IC50 [nM]	Compound
< 10	COc1c([C@H]2[C@H](C(=O)Nc3cn(S(C)(=O)=O)nc3C)O[C@@](C)(C(F)(F)F)[C@H]2C)ccc(F)c1F [Compound 180, (2R,3S,4S,5R)-3-(3,4-difluoro-2-methoxyphenyl)-4,5-dimethyl-N-(3-methyl-1-(methylsulfonyl)-1H-pyrazol-4-yl)-5-(trifluoromethyl)tetrahydrofuran-2-carboxamide]
10 to 100	COc1c([C@H]2[C@H](C(=O)Nc3ccnc(CN4CCOCC4)c3)O[C@@](C)(C(F)(F)F)[C@H]2C)ccc(F)c1F [Compound 181, (2R,3S,4S,5R)-3-(3,4-difluoro-2-methoxyphenyl)-4,5-dimethyl-N-(2-(morpholinomethyl)pyridin-4-yl)-5-(trifluoromethyl)tetrahydrofuran-2-carboxamide]
< 10	COc1c([C@H]2[C@H](C(=O)Nc3ccnc(CN(C)C)c3)O[C@@](C)(C(F)(F)F)[C@H]2C)ccc(F)c1F [Compound 183, (2R,3S,4S,5R)-3-(3,4-difluoro-2-methoxyphenyl)-N-(2-((dimethylamino)methyl)pyridin-4-yl)-4,5-dimethyl-5-(trifluoromethyl)tetrahydrofuran-2-carboxamide]
< 10	COc1c([C@H]2[C@H](C(=O)Nc3ccnc(CN4CCCC4)c3)O[C@@](C)(C(F)(F)F)[C@H]2C)ccc(F)c1F [Compound 184, (2R,3S,4S,5R)-3-(3,4-difluoro-2-methoxyphenyl)-4,5-dimethyl-N-(2-(pyrrolidin-1-ylmethyl)pyridin-4-yl)-5-(trifluoromethyl)tetrahydrofuran-2-carboxamide]
< 10	COc1c([C@H]2[C@H](C(=O)Nc3ccnc(S(N)(=O)=O)c3)O[C@@](C)(C(F)(F)F)[C@H]2C)ccc(F)c1F [Compound 188, (2R,3S,4S,5R)-3-(3,4-difluoro-2-methoxyphenyl)-4,5-dimethyl-N-(2-sulfamoylpyridin-4-yl)-5-(trifluoromethyl)tetrahydrofuran-2-carboxamide]
< 10	COc1c([C@H]2[C@H](C(=O)Nc3ncco3)O[C@@](C)(C(F)(F)F)[C@H]2C)ccc(F)c1F [Compound 196, (2R,3S,4S,5R)-3-(3,4-difluoro-2-methoxyphenyl)-4,5-dimethyl-N-(oxazol-2-yl)-5-(trifluoromethyl)tetrahydrofuran-2-carboxamide]
< 10	COc1c([C@H]2[C@H](C(=O)Nc3cn(C[C@@H](O)CO)nc3C)O[C@@](C)(C(F)(F)F)[C@H]2C)ccc(F)c1F [Compound 201, (2R,3S,4S,5R)-3-(3,4-difluoro-2-methoxyphenyl)-N-(1-((R)-2,3-dihydroxypropyl)-3-methyl-1H-pyrazol-4-yl)-4,5-dimethyl-5-(trifluoromethyl)tetrahydrofuran-2-carboxamide]
< 10	COc1c(C2C(C(=O)Nc3ccnc(C(O)C(C)O)c3)OC(C)(C(F)(F)F)C2C)ccc(F)c1F (stereo not shown) [Compound 208, 3-(3,4-difluoro-2-methoxy-phenyl)-N-[2-(1,2-dihydroxypropyl)-4-pyridyl]-4,5-dimethyl-5-(trifluoromethyl)tetrahydrofuran-2-carboxamide]
< 10	COc1c([C@H]2[C@H](C(=O)Nc3cc(S(C)(=O)=O)nn3C)O[C@@](C)(C(F)(F)F)[C@H]2C)ccc(F)c1F [Compound 211, (2R,3S,4S,5R)-3-(3,4-difluoro-2-methoxyphenyl)-4,5-dimethyl-N-(1-methyl-3-(methylsulfonyl)-1H-pyrazol-5-yl)-5-(trifluoromethyl)tetrahydrofuran-2-carboxamide]
< 10	COc1c([C@H]2[C@H](C(=O)Nc3cnnc(C(C)(C)O)c3)O[C@@](C)(C(F)(F)F)[C@H]2C)ccc(F)c1F [Compound 219, (2R,3S,4S,5R)-3-(3,4-difluoro-2-methoxy-phenyl)-N-[6-(1-hydroxy-1-methyl-ethyl)pyridazin-4-yl]-4,5-dimethyl-5-(trifluoromethyl)tetrahydrofuran-2-carboxamide]
